In patent US20050019825A9, “Common ligand mimics: pseudothiohydantoins” (priority 2002, published 2005) one finds IC50 data, which are given here for 3 compounds.

This test concerns the target dihydrodipicolinate reductase (DHPR) (Escherichia coli, UniProt P04036). The experiment in a line: Screening of bi-ligands for DHPR (Example 25), kinetic assay at 340 nm. The test is classed as biochemical. The settings on record: bi-ligands, Example 25 (FIG. 7); substrate and NADPH near Km. The protocol:
Screening of Biligands for Binding to Dihydrodipicolinate Reductase (DHPR)
This example describes the screening of bi-ligands having common ligand mimics for binding activity to dihydrodipicolinate reductase (DHPR).
Bi-ligands were produced by the methods of Examples 16 to 18. The bi-ligands were screened for binding to DHPR.
Stock solutions of each of the reagents were prepared in the following concentrations. Dilutions of the stock solutions were prepared prior to running the assay in the concentrations indicated below. Dilution of DHPR was prepared in 10 mM HEPES at a pH of 7.4. DHPS was not diluted and was stored in eppindorf tubes.
The L-ASA solution was prepared in the following manner. 180 μM stock solution of ASA was prepared. 100 μl of the ASA stock was mixed with 150 μl of concentrated NaHCO3 and 375 μl of […]. For use in the assay, 28.8 mM L-ASA equal 625 μl of the solution. The L-ASA stock solution was kept at a temperature of −20° C. After dilution, the pH of the 28.8 mM solution was checked and maintained between 1 and 2.
First, the DHPS reaction was monitored at 340 nm prior to and after addition of the inhibitor to detect background reaction with the inhibitor. The solution for background detection was a 945 μl solution containing 0.1 HEPES (pH 7.8), 1 mM pyruvate, 6 μM NADPH, 40 μM L-ASA, and 7 μl of 1 mg/ml DHPS at 25° C. in the volumes provided above. The sample solution was then mixed and incubated for 10 minutes. Next, 500 nM solutions of the inhibitors and enough DMSO to provide a final DMSO concentration of 5% were added. The solution was mixed and incubated for an additional 6 minutes.
In DHPR samples, 5 μl of the diluted DHPR enzyme were added. The sample was mixed for 20 seconds and then the reaction was run for 10 minutes. After a 50 second lag, the samples were read in a Cary spectrophotometer at 340 nm. Reading of the samples was continued until 300 seconds. Cuvette #1 contained the control reaction (no inhibitor), and cuvette #2 contained the positive control reaction in which Cibacron Blue at 2.58 μM was substituted for inhibitor to yield 70 to 80% inhibition. The substrate and NADPH or NAHD were kept near their Km values.

Where “and” joins values, the source holds several entries; their conditions need not be identical. Equal entries are not always repeated.

dihydrodipicolinate reductase (DHPR), sequence (P04036 whole entry): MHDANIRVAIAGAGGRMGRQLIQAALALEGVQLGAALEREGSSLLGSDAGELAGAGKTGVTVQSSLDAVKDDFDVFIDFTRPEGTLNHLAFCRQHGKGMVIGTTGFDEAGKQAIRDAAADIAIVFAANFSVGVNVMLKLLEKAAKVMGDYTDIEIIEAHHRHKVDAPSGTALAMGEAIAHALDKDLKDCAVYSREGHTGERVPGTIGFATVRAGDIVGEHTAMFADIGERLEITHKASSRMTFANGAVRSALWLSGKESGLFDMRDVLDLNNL

For the compound `N=C1NC(=O)C(=Cc2ccc(C(=O)NCCSc3cc(C(=O)O)nc(C(=O)O)c3)cc2)S1` [compound 5c, 4-{2-[4-(2-imino-4-oxo-thiazolidin-5-ylidenemethyl)-benzoylamino]-ethylsulfanyl}-pyridine-2,6-dicarboxylic acid], the IC50 was ~33 µM. As for `N=C1NC(=O)C(=Cc2cccc(C(=O)NCCSc3cc(C(=O)O)nc(C(=O)O)c3)c2)S1` [compound 5b, 4-{2-[3-(2-imino-4-oxo-thiazolidin-5-ylidenemethyl)-benzoylamino]-ethylsulfanyl}-pyridine-2,6-dicarboxylic acid], the figure is ~1.02 µM; as for `N=C1NC(=O)C(=Cc2ccc(O)c(C(=O)NCCSc3cc(C(=O)O)nc(C(=O)O)c3)c2)S1` [compound 5a, 4-{2-[2-hydroxy-5-(2-imino-4-oxo-thiazolidin-5-ylidenemethyl)-benzoylamino]-ethylsulfanyl}-pyridine-2,6-dicarboxylic acid], ~8.2 µM and ~15.5 µM.

What is called IC50 is the concentration at which inhibition is half-maximal.
